Measured values: PubChem BioAssay (NCI)
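96-well plates; 48 h exposure; 5 concentrations. Endpoints by linear interpolation between flanking doses. Not reached: highest tested concentration assigned. TGI is the concentration that stops growth completely.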

How the values were obtained:
Assay in all cases: NCI tumour cell line growth inhibition, 48 h
786-0 renal = test system: 786-0 renal
A549 NSCLC = test system: A549 NSCLC
CAKI-1 renal = test system: CAKI-1 renal
CCRF-CEM leukemia = test system: CCRF-CEM leukemia
COLO 205 colon = test system: COLO 205 colon
DLD-1 colon = test system: DLD-1 colon
DMS 114 small cell lung = test system: DMS 114 small cell lung
EKVX NSCLC = test system: EKVX NSCLC
HCC-2998 colon = test system: HCC-2998 colon
HCT-116 colon = test system: HCT-116 colon
HL-60(TB) leukemia = test system: HL-60(TB) leukemia
HOP-18 NSCLC = test system: HOP-18 NSCLC
HOP-62 NSCLC = test system: HOP-62 NSCLC
HOP-92 NSCLC = test system: HOP-92 NSCLC
HT29 colon = test system: HT29 colon
IGROV1 ovarian = test system: IGROV1 ovarian
K-562 leukemia = test system: K-562 leukemia
KM12 colon = test system: KM12 colon
M14 melanoma = test system: M14 melanoma
M19-MEL melanoma = test system: M19-MEL melanoma
MALME-3M melanoma = test system: MALME-3M melanoma
MOLT-4 leukemia = test system: MOLT-4 leukemia
NCI-H226 lung = test system: NCI-H226 lung
OVCAR-3 ovarian = test system: OVCAR-3 ovarian
OVCAR-4 ovarian = test system: OVCAR-4 ovarian
OVCAR-8 ovarian = test system: OVCAR-8 ovarian
RPMI-8226 leukemia = test system: RPMI-8226 leukemia
SF-295 CNS = test system: SF-295 CNS
SF-539 CNS = test system: SF-539 CNS
SK-MEL-2 melanoma = test system: SK-MEL-2 melanoma
SK-MEL-5 melanoma = test system: SK-MEL-5 melanoma
SK-OV-3 ovarian = test system: SK-OV-3 ovarian
SNB-19 CNS = test system: SNB-19 CNS
SNB-78 CNS = test system: SNB-78 CNS
SW-620 colon = test system: SW-620 colon
TK-10 renal = test system: TK-10 renal
UACC-257 melanoma = test system: UACC-257 melanoma
UACC-62 melanoma = test system: UACC-62 melanoma
UO-31 renal = test system: UO-31 renal
A498 renal = test system: A498 renal
ACHN renal = test system: ACHN renal
BT-549 breast = test system: BT-549 breast
DU-145 prostate = test system: DU-145 prostate
HCT-15 colon = test system: HCT-15 colon
HS 578T breast = test system: HS 578T breast
LOX IMVI melanoma = test system: LOX IMVI melanoma
MCF7 breast = test system: MCF7 breast
MDA-MB-231 breast = test system: MDA-MB-231 breast
MDA-MB-435 = test system: MDA-MB-435
MDA-N = test system: MDA-N
NCI-H23 lung = test system: NCI-H23 lung
NCI-H460 lung = test system: NCI-H460 lung
NCI-H522 lung = test system: NCI-H522 lung
NCI/ADR-RES ovarian = test system: NCI/ADR-RES ovarian
OVCAR-5 ovarian = test system: OVCAR-5 ovarian
PC-3 prostate = test system: PC-3 prostate
RXF 393 renal = test system: RXF 393 renal
SF-268 CNS = test system: SF-268 CNS
SK-MEL-28 melanoma = test system: SK-MEL-28 melanoma
SN12C renal = test system: SN12C renal
SNB-75 CNS = test system: SNB-75 CNS
SR leukemia = test system: SR leukemia
T-47D breast = test system: T-47D breast
U251 CNS = test system: U251 CNS

Measured: TGI

CSc1nc(NC2OC(COC(C)=O)C(OC(C)=O)C(OC(C)=O)C2OC(C)=O)c(N=C(C)C(C)=O)c(=O)[nH]1 (configuration not stated)
not listed: A498 renal | ACHN renal | BT-549 breast | DU-145 prostate | HCT-15 colon | HS 578T breast | LOX IMVI melanoma | MCF7 breast | MDA-MB-231 breast | MDA-MB-435 | MDA-N | NCI-H23 lung | NCI-H460 lung | NCI-H522 lung | NCI/ADR-RES ovarian | OVCAR-5 ovarian | PC-3 prostate | RXF 393 renal | SF-268 CNS | SK-MEL-28 melanoma | SN12C renal | SNB-75 CNS | SR leukemia | T-47D breast | U251 CNS
> 100 µM: all other assays above

CC(C)=CCOc1cc(NC(=S)c2ccsc2C)ccc1Cl
89.3 µM: IGROV1 ovarian
66.4 µM: SNB-75 CNS
53.1 µM: RPMI-8226 leukemia
83.4 µM: MDA-MB-231 breast
37.1 µM: HOP-92 NSCLC
88 µM: HCC-2998 colon
80.6 µM: RXF 393 renal
58.9 µM: HOP-62 NSCLC
84.4 µM: SR leukemia
not listed: DLD-1 colon | DMS 114 small cell lung | HOP-18 NSCLC | M14 melanoma | M19-MEL melanoma | SNB-78 CNS
> 100 µM: all other assays above
